The record followed here is US8394799B2, “Compounds that inhibit HIF-1 activity, the method for preparation thereof and the pharmaceutical composition containing them as an effective component” (Korea Research Institute of Bioscience and Biotechnology, priority 2006, dated 2013).

The subject of one data set is EPO or VEGF. In words: Expression of EPO or VEGF, target genes of HIF-1, in hypoxia (RT-PCR). The data set is classed as cell-based, human. The conditions noted are these: RT-PCR, 0, 1, 3 and 10 μM, 12 hrs in 1% O2, FIG. 3. The source says:
The inhibitory effect of the compounds of the present invention on HIF-1 activity was confirmed by assaying the compounds prepared in Examples for inhibition activity on the expression of EPO or VEGF, a representative target gene of HIF-1 through an analysis of RT-PCR (reverse transcriptase polymerase chain reaction). VEGF, a target gene of HIF-1, encodes an angiogenesis factor playing a pivotal role in the growth and metastasis of cancer and EPO is a hematosis hormone gene, and both genes have been known for being deeply related to the development and the aggravation of cancer. The compounds of the present invention were measured for inhibition of VEGF expression in AGS, Hep3B and HepG2 cells. In this regard, the hepatocellular carcinoma cell line Hep3B was treated with compounds prepared in Examples 18 and 126 as follows.
After being grown to 70% confluency in culture dishes, HepG2 cells (American Type Culture Collection) were treated with various concentrations (0 μm, 1 μm 3 μM and 10 μm) of compounds prepared in Examples 18, 44, 113 or 126 and incubated for 12 hrs in hypoxia (1% O2, 94%, N2, and 5% CO2, expressed as ‘1% O2’ in FIG. 2). Total RNA was isolated using an RNA Mini kit (Qiagen). From the total RNA (2 μg) thus obtained, cDNA was synthesized using an RT-PCR kit (Invitrogen), and was used to amplify EPO or VEGF by PCR in the presence of EPO or VEGF-specific primers. EPO or VEGF expression was quantitatively analyzed by running the PCR products on agarose gel. As an internal control, GAPDH was simultaneously amplified so as to analyze the selective inhibition of each compound for VEGF. Base sequences of primers used for the amplification of EPO, VEGF and GAPDH used in the present invention were as follows.

The subject of data set [1] is HIF-1. In words: HRE reporter assay, HIF activity % remaining, AGS cells. It counts as cell-based, human. The conditions noted are these: summary in words of the data of Table 1 and Table 2; cell line not stated. An excerpt:
(§1) Six tandem repeats of HRE (hypoxia Responsive Element 5′-ACGTG-3′), which is present in a human VEGF gene, was inserted into the multi-cloning region of a pGL3-basic vector (Promega) containing a luciferase gene as a reporter gene to produce a recombinant pGL3-HRE-luciferase vector which was then used to assay the compounds prepared in the above Examples for inhibition activity against HIF-mediated transcriptional activity.
The hepatocellular carcinoma cell line HepG2 or Hep3B, both available from ATCC (American Type Culture Collection), and the gastric carcinoma cell line AGS, available from ATCC, were grown at 70% confluency in culture dishes and co-transfected with an internal control vector (pRL-CMV, Promega) and the recombinant pGL3-HRE-luciferase vector using Lipofectamine Plus Reagent (Invitrogen). HepG2 and AGS cells were treated with the compound of Chemical Formula 1A while Hep3B and AGS cells were treated with the compound of Chemical Formula 1B. The compound of Chemical Formula 1A was used in a concentration of 10 μm for HepG2 or AGS cells. The compound of Chemical Formula 1B was used in a concentration of 30 μM for Hep3B and in a concentration of 10 μM for AGS cells. […] The compounds prepared in Examples above were assayed for inhibition activity against HIF-1 by measuring the activity of the luciferase, induced in hypoxia, using a Dual-luciferase reporter assay system (Promoga). In this regard, the luciferase activity was measured for 10 sec using a Microlumat Plus luminometer (EG&G Berthold). In the meanwhile, the renilla luciferase activity from the control vector PRL-CMV (Promega) was measured to normalize the data obtained.
On the basis of the renilla luciferase activity, the HIF activity % remaining after treatment with the compounds was corrected.
Background: Reporter assays use an easily measured gene product as a stand-in for the process of interest.

Data set [2] deals with metastatic breast carcinoma cell line MDA-MB-435. In words: In vivo anticancer activity in nude mice implanted with MDA-MB-435. The settings on record: for inhibition of the growth of the cancer cells compared to the control: once a day, MDA-MB-435 in nude mice; for deaths in six mice of each group: mouse, in vivo. An excerpt:
Female nude mice 5-6 weeks old (Crj:BALB/c nu/nu, Charles River) were bred in germ-free breeding rooms maintained at constant temperature and humidity. The nude mice were anesthetized before incision of the chest skin. The metastatic breast carcinoma cell line MDA-MB-435, obtained from DR D. R. Welch, Univ. Alabama, was implanted at a count of 10^6 cells/mouse into the mammary gland fat pad, and the incisions were then closed with surgical clips. The nude mice were divided into test groups and a control group, each consisting of 6 mice. […] For the control group, Solution A alone was used at a dose of 100 μl once a day. Thereafter, tumor volumes and body weights were measured once a week. Tumor volumes were calculated according to the following Mathematic Formula 1. Tumor Volume (mm^3)=(Length of Long Axis,mm)×(Length of Short Axis,mm)^2×0.5 <Mathematic Formula 1>

In data set [3] the test system is HIF-1. As to the kind of experiment: Assay of IC50, AGS cells (HRE-luciferase transfected). It counts as cell-based. The settings on record: Homo sapiens.
Source text: as §1

In data set [4] the test system is HIF-1. In words: Assay of IC50, Hep3B cells (HRE-luciferase transfected). It counts as cell-based. The settings on record: Homo sapiens.
Source text: as §1

The nature of data set [5]: Acute toxicity, single oral administration in mice. The settings on record: mouse, in vivo, 300 mg/kg. The protocol: An acute cytotoxicity assay was conducted with five-week-old SPF C57BL/6 mice (Samtako BioKorea) as follows.
Data set [6] deals with HIF-1. In words: Assay of IC50, SK-Hep-1 cells (same manner). The data set is classed as cell-based. The settings on record: Homo sapiens, SK-HEP1; SK-Hep-1 cell line, compounds 0.01 to 100 μM for 16 hrs.
Source text: as §1

What is called IC50 is the midpoint of a concentration-inhibition curve. Low values mean greater potency in that assay, high ones weaker potency in that assay.

`COC(=O)c1ccc(O)c(NC(=O)COc2ccc(C34CC5CC(CC(C5)C3)C4)cc2)c1` [Example 18, 3-[2-(4-Adamantan-1-yl-phenoxy)acetyl-amino]-4-hydroxy benzoic acid methyl ester]: the “expression of EPO or VEGF in hypoxia” value with EPO or VEGF is reported as “inhibit the expression of EPO or VEGF dose-dependently”. Moreover, the “inhibition activity against the transcription mediated by HIF-1, induced in hypoxia” value (“inhibition activity” below) in the data set on HIF-1 [1] was “excellent inhibition activity”. Moreover, the “inhibition of the growth of the cancer cells compared to the control” value in data set [2] (20 mg/kg) is 46.5%; in data set [2] (50 mg/kg), 64.6%. In addition, the “deaths in six mice of each group” value in data set [2] was “No dead were observed”. In addition, the IC50 in the data set on HIF-1 [3] was determined as 700 nM; with HIF-1 [4] it was 2600 nM. Also, in data set [5], the “toxicity (death, clinical syndromes, body weight, autopsy)” value was “no toxicity”.
Consider `NC(=O)c1cccc(NC(=O)COc2ccc(C34CC5CC(CC(C5)C3)C4)cc2)c1` [Example 23, 3-[2-(4-Adamantan-1-yl-phenoxy)acetyl-amino]-benzamide], for which the “inhibition activity” value in the data set on HIF-1 [1] is on record as “excellent inhibition activity”. Moreover, the IC50 was 1000 nM in the data set on HIF-1 [3] and 4300 nM in the data set on HIF-1 [4].
For the compound `O=C(COc1ccc(C23CC4CC(CC(C4)C2)C3)cc1)Nc1cccc(C(=O)O)c1` [Example 44, 3-[2-(4-Adamantan-1-yl-phenoxy)-acetylamino]-benzoic acid], the “expression of EPO or VEGF in hypoxia” value in the data set with EPO or VEGF is listed as “inhibit the expression of EPO or VEGF dose-dependently”. In addition, the “inhibition activity” value in the data set with HIF-1 [1] is “excellent inhibition activity”. Further, the IC50 in the data set on HIF-1 [3] was 2500 nM; in the data set with HIF-1 [4], 5000 nM.
Consider `O=C(COc1ccc(C23CC4CC(CC(C4)C2)C3)cc1)Nc1cc(C(=O)O)ccc1O` [Example 48, 3-[2-(4-Adamantan-1-yl-phenoxy)-acetylamino]-4-hydroxy-benzoic acid], for which the “inhibition activity” value in the data set with HIF-1 [1] is “excellent inhibition activity”. The IC50 in the data set on HIF-1 [3] is 350 nM; in the data set with HIF-1 [4], 400 nM.
Take `NC(=O)c1ccnc(NC(=O)COc2ccc(C34CC5CC(CC(C5)C3)C4)cc2)c1` [Example 113, 2-[2-(4-adamantan-1-yl-phenoxy)acetylamino]-isonicotinamide]: the “expression of EPO or VEGF in hypoxia” value in the data set with EPO or VEGF is “inhibit the expression of EPO or VEGF dose-dependently”. The IC50 in the data set with HIF-1 [6] was 590 nM. In the data set with HIF-1 [1], the “inhibition activity” value is “excellent inhibition activity”.
For the compound `COC(=O)c1ccc2[nH]c(COc3ccc(C45CC6CC(CC(C6)C4)C5)cc3)nc2c1` [Example 126, 2-(4-adamantan-1-yl-phenoxymethyl)-1H-benzoimidazole-5-carboxylic acid methyl ester], in the data set on EPO or VEGF, the “expression of EPO or VEGF in hypoxia” value was “inhibit the expression of EPO or VEGF dose-dependently”. Also, the “inhibition activity” value in the data set on HIF-1 [1] is listed as “excellent inhibition activity”. Also, the “inhibition of the growth of the cancer cells compared to the control” value came to 53% in data set [2] (20 mg/kg) and 58.6% in data set [2] (50 mg/kg). The “deaths in six mice of each group” value in data set [2] is “No dead were observed”. In addition, the “toxicity (death, clinical syndromes, body weight, autopsy)” value in data set [5] is on record as “no toxicity”.
